Assay results: article PMC10584170, “Machine learning-based phenotypic imaging to characterise the targetable biology of Plasmodium falciparum male gametocytes for the development of transmission-blocking antimalarials” (PLOS Pathogens, 2023)
pIC50: −log10 of the molar value. Where two headings read alike, the source gives them in different places. Values belong to the compound of their own block, whether it stands above or below them.

Legend:
[1] = test system: P. falciparum female gametocytes; assay: P. falciparum Dual Gamete Formation Assay (PfDGFA), female readout (Pfs25-positive female gametes); assay type: cell-based, Plasmodium falciparum NF54; conditions: for pIC50: PfDGFA, 24 h incubation with gametocytes before induction, female gamete readout, read-out: Female IC50
Method: (§1) P. falciparum NF54 (originally isolated from an imported malaria case in the Netherlands in the 1980s; BEI Resources, cat. No. MRA-1000) strain asexual parasites were maintained between 0.3–5% parasitaemia by regular passage in complete culture medium (RPMI supplemented with 25 mM HEPES, 50 μg ml^−1 hypoxanthine, 4.8 g l^−1 NaHCO3, 2mM L-glutamine, 5% pooled type AB serum, 0.5% Albumax II (Gibco)) at 4% haematocrit in washed whole blood (National Blood and Transfusion Service or Centro de Transfusiones de la Comunidad de Madrid CTCM) under a 1% O2/3% CO2/96% N2 environment. Gametocytes were induced by seeding culture flasks at 2% parasitaemia/4% haematocrit and subjecting them to daily medium changes for 14 days whilst maintaining a temperature of 37°C at all times. On Day 14, the maturity of gametocytes was assessed by quantifying male gametogenesis (exflagellation). A 20 μl sample of gametocyte culture was mixed with equal volume of ookinete medium (complete culture medium supplemented with 0.1 μM xanthurenic acid) at room temperature and transferred to a haemocytometer. After 20 min at room temperature, exflagellation was accurately quantified as described in Delves et al. 2016 [17].
(§2) The Pf DGFA was performed as described in Delves et al. 2016 [17]. […] Plates were then incubated for 24 h at 37°C in a humidified box under a 1% O2/3% CO2/96% N2 gas mix. Gametogenesis was triggered by addition of 10 μl per well of ookinete medium + 0.27 μg ml^-1 Cy3-labelled anti-Pfs25 antibody. Plates were incubated on a metal block at 4°C for 4 min to ensure even cooling, then 28°C for a further 4 min. Exflagellation was recorded by capturing 10 frames over 1 s under brightfield illumination using a x4 objective with a 1.5x zoom (effectively x6) attached to an automated Nikon Ti fluorescence microscope. After recording exflagellation, plates were incubated for a further 24 h in the dark at 28°C to ensure maximal expression of Pfs25 by female gametes. The plates were then returned to the microscope and female gametes imaged at x6 using fluorescence microscopy.
(§3) Exflagellation centres and female gametes were quantified using custom image analysis pipelines developed within ICY Bioimage Analysis (https://icy.bioimageanalysis.org/).

[2] = test system: P. falciparum male gametocytes; assay: P. falciparum Dual Gamete Formation Assay (PfDGFA), male readout (exflagellation); assay type: cell-based, Plasmodium falciparum NF54; conditions: for pIC50: PfDGFA, 24 h incubation with gametocytes before induction, exflagellation readout, read-out: Male IC50
Method: as §1, §2, §3

[3] = 2µM, 24h preincubation with gametocytes, average of replicates
[4] = 2µM, 24h preincubation with gametocytes, replicate R1
[5] = 2µM, 24h preincubation with gametocytes, replicate R3
[6] = 2µM, 24h preincubation with gametocytes, replicate R4
[7] = PfDGFA at 2µM, 24h preincubation with gametocytes prior to induction of gametogenesis, replicate R1
[8] = PfDGFA at 2µM, 24h preincubation with gametocytes prior to induction of gametogenesis, replicate R3
[9] = PfDGFA at 2µM, 24h preincubation with gametocytes prior to induction of gametogenesis, replicate R4
[10] = PfDGFA at 2µM, 24h preincubation, average of replicates
[11] = 2µM, 24h preincubation with gametocytes prior to induction of gametogenesis, average of replicates
[12] = 2µM, 24h preincubation with gametocytes prior to induction of gametogenesis, replicate R1
[13] = 2µM, 24h preincubation with gametocytes prior to induction of gametogenesis, replicate R4

pIC50 [1]: 6.52 | pIC50 [2]: 6.96
SMILES: CC(=NNC(=S)Nc1ccccc1Cl)c1ccccn1 [TCMDC-124278]
Average inhibition female (%) [1, 3]: 61.5% | % inhibition female (individual replicates) R1 [1, 4]: 40.0% | % inhibition female (individual replicates) R3 [1, 5]: 55.6% | % inhibition female (individual replicates) R4 [1, 6]: 74.7% | Average inhibition male (%) [2, 3]: 101.3% | % inhibition male (individual replicates) R1 [2, 4]: 101.8% | % inhibition male (individual replicates) R3 [2, 5]: 99.8% | % inhibition male (individual replicates) R4 [2, 6]: 103.6%

SMILES: CCCCOc1ccc(N2C(N)=NC(N)=NC2(C)C)cc1.Cl [TCMDC-124279]
% inhibition female (individual replicates) R1 [1, 7]: 2.1% | % inhibition female (individual replicates) R3 [1, 8]: -37.2% | % inhibition female (individual replicates) R4 [1, 9]: 21.1% | Average inhibition female (%) [1, 10]: -3.8% | % inhibition male (individual replicates) R1 [2, 7]: -7.3% | % inhibition male (individual replicates) R3 [2, 8]: -37.1% | % inhibition male (individual replicates) R4 [2, 9]: -28.5% | Average inhibition male (%) [2, 10]: -17.0%

SMILES: CCOC(=O)c1cc(C(=O)OC)c2ccccn12 [TCMDC-124299]
% inhibition female (individual replicates) R1 [1, 7]: 6.3% | % inhibition female (individual replicates) R3 [1, 8]: -21.8% | % inhibition female (individual replicates) R4 [1, 9]: 0.07% | Average inhibition female (%) [1, 10]: -2.7% | % inhibition male (individual replicates) R1 [2, 7]: 15.7% | % inhibition male (individual replicates) R3 [2, 8]: -23.4% | % inhibition male (individual replicates) R4 [2, 9]: -23.1% | Average inhibition male (%) [2, 10]: -9.0%

SMILES: [O-][S+]1c2ccccc2Sc2ccccc21 [TCMDC-124300]
% inhibition female (individual replicates) R1 [1, 7]: 9.4% | % inhibition female (individual replicates) R3 [1, 8]: -8.0% | % inhibition female (individual replicates) R4 [1, 9]: -1.0% | Average inhibition female (%) [1, 10]: -3.0% | % inhibition male (individual replicates) R1 [2, 7]: 13.3% | % inhibition male (individual replicates) R3 [2, 8]: 4.0% | % inhibition male (individual replicates) R4 [2, 9]: -37.1% | Average inhibition male (%) [2, 10]: -9.5%

pIC50 ([1]; Plasmodium falciparum): 5.12 | pIC50 ([2]; Plasmodium falciparum): 6.43
SMILES: CCCCNS(=O)(=O)c1ccc(NC(=O)c2cc([N+](=O)[O-])ccc2Cl)cc1 [TCMDC-124345]
Selectivity ratio F ([1]; HepG2 Tox50 versus female IC50): 13.22 | inhibition at 2 µM ([1]; Plasmodium falciparum, 2µM, 24h preincubation with gametocytes, average of replicates, read-out: Average inhibition female (%)): 20% | inhibition at 2 µM ([1]; Plasmodium falciparum, 2µM, 24h preincubation with gametocytes, replicate R1, read-out: % inhibition female (individual replicates) R1): 27.9% | inhibition at 2 µM ([1]; Plasmodium falciparum, 2µM, 24h preincubation with gametocytes, replicate R2, read-out: % inhibition female (individual replicates) R2): 30.3% | inhibition at 2 µM ([1]; Plasmodium falciparum, 2µM, 24h preincubation with gametocytes, replicate R3, read-out: % inhibition female (individual replicates) R3): 6.6% | inhibition at 2 µM ([1]; Plasmodium falciparum, 2µM, 24h preincubation with gametocytes, replicate R4, read-out: % inhibition female (individual replicates) R4): 15% | Selectivity Ratio M ([2]; HepG2 Tox50 versus male IC50): 267.48 | inhibition at 2 µM ([2]; Plasmodium falciparum, 2µM, 24h preincubation with gametocytes, average of replicates, read-out: Average inhibition male (%)): 100% | inhibition at 2 µM ([2]; Plasmodium falciparum, 2µM, 24h preincubation with gametocytes, replicate R1, read-out: % inhibition male (individual replicates) R1): 101% | inhibition at 2 µM ([2]; Plasmodium falciparum, 2µM, 24h preincubation with gametocytes, replicate R2, read-out: % inhibition male (individual replicates) R2): 102% | inhibition at 2 µM ([2]; Plasmodium falciparum, 2µM, 24h preincubation with gametocytes, replicate R3, read-out: % inhibition male (individual replicates) R3): 100% | inhibition at 2 µM ([2]; Plasmodium falciparum, 2µM, 24h preincubation with gametocytes, replicate R4, read-out: % inhibition male (individual replicates) R4): 98.2%

SMILES: CC(=O)Nc1ccc(Nc2c3ccccc3nc3ccccc23)cc1 [TCMDC-124356]
Average inhibition female (%) [1, 11]: 14.4% | % inhibition female (individual replicates) R1 [1, 12]: 47.3% | % inhibition female (individual replicates) R3 ([1]; 2µM, 24h preincubation with gametocytes prior to induction of gametogenesis, replicate R3): 8.8% | % inhibition female (individual replicates) R4 [1, 13]: 12.0% | HitlevelF ([1]; 2µM, 24h preincubation, hits selected on >50% inhibition in the female readout across replicates): 0 | Average inhibition male (%) [2, 11]: 30.9% | % inhibition male (individual replicates) R1 [2, 12]: 50.9% | % inhibition male (individual replicates) R4 [2, 13]: -15.9% | HitlevelM ([2]; 2µM, 24h preincubation, hits selected on >50% inhibition in the male readout across replicates): 2 | Activity ([2]; PfDGFA at 2µM, 24h preincubation, hit = >50% inhibition in male or female readout in at least 3 replicates, 0 = no class assigned): 0
